Calls of active or inactive are those of the source. The rule behind the calls is not given here.
System: CCRIS mutagenicity, Ames/micronucleus/aberration tests
Test: CCRIS mutagenicity studies
[1] = Test System: AMES SALMONELLA TYPHIMURIUM, Strain/Indicator: TA98, Metabolic Activation: NONE, Method: PREINCUBATION
[2] = Test System: AMES SALMONELLA TYPHIMURIUM, Strain/Indicator: TA98, Metabolic Activation: RAT LIVER S-9, PHENOBARBITAL AND BETA-NAPHTHOFLAVONE, Method: PREINCUBATION
[3] = Test System: AMES SALMONELLA TYPHIMURIUM, Strain/Indicator: TA100, Metabolic Activation: NONE, Method: PREINCUBATION
[4] = Test System: AMES SALMONELLA TYPHIMURIUM, Strain/Indicator: TA100, Metabolic Activation: RAT LIVER S-9, PHENOBARBITAL AND BETA-NAPHTHOFLAVONE, Method: PREINCUBATION
[5] = Test System: AMES SALMONELLA TYPHIMURIUM, Strain/Indicator: TA1535, Metabolic Activation: NONE, Method: PREINCUBATION
[6] = Test System: AMES SALMONELLA TYPHIMURIUM, Strain/Indicator: TA1535, Metabolic Activation: RAT LIVER S-9, PHENOBARBITAL AND BETA-NAPHTHOFLAVONE, Method: PREINCUBATION
[7] = Test System: AMES SALMONELLA TYPHIMURIUM, Strain/Indicator: TA1537, Metabolic Activation: NONE, Method: PREINCUBATION
[8] = Test System: AMES SALMONELLA TYPHIMURIUM, Strain/Indicator: TA1537, Metabolic Activation: RAT LIVER S-9, PHENOBARBITAL AND BETA-NAPHTHOFLAVONE, Method: PREINCUBATION
[9] = Test System: AMES SALMONELLA TYPHIMURIUM, Strain/Indicator: TA98, Metabolic Activation: RAT, LIVER, S-9, AROCLOR 1254, Method: STANDARD PLATE

Q: How did the mutagenic call (Test System: AMES SALMONELLA TYPHIMURIUM, Strain/Indicator: D3052, Metabolic Activation: NONE, Method: PREINCUBATION, LIQUID INCUBATION) turn out when `C/C(Cl)=C/C=O` was run?
A: active; positive

Q: What about the mutagenic call (Test System: AMES SALMONELLA TYPHIMURIUM, Strain/Indicator: TA98, Metabolic Activation: NONE, Method: PREINCUBATION, LIQUID INCUBATION) of the same compound?
A: inactive; negative

Q: And the mutagenic call (Test System: AMES SALMONELLA TYPHIMURIUM, Strain/Indicator: TA100, Metabolic Activation: NONE, Method: PREINCUBATION, LIQUID INCUBATION)?
A: inactive; negative

Q: And the mutagenic call (Test System: AMES SALMONELLA TYPHIMURIUM, Strain/Indicator: TA1535, Metabolic Activation: NONE, Method: PREINCUBATION, LIQUID INCUBATION)?
A: inactive; negative

Q: And the mutagenic call (Test System: AMES SALMONELLA TYPHIMURIUM, Strain/Indicator: TA1538, Metabolic Activation: NONE, Method: PREINCUBATION, LIQUID INCUBATION)?
A: inactive; negative

Q: Which mutagenic call (Test System: AMES SALMONELLA TYPHIMURIUM, Strain/Indicator: TM677, Metabolic Activation: NONE, Method: PREINCUBATION) does the source give for `O=C1C=C2c3ccccc3-c3cccc(c32)C1=O` here?
A: active; positive

Q: And the mutagenic call (Test System: AMES SALMONELLA TYPHIMURIUM, Strain/Indicator: TM677, Metabolic Activation: RAT, LIVER, POSTMITOCHONDRIAL SUPERNATANT, AROCLOR 1254, Method: PREINCUBATION)?
A: active; positive

Q: What does the source list for `CCOc1ccc2ccccc2c1`?
A: mutagenic call [1]: inactive; negative; mutagenic call [2]: inactive; negative; mutagenic call [3]: inactive; negative; mutagenic call [4]: inactive; negative; mutagenic call [5]: inactive; negative; mutagenic call [6]: inactive; negative; mutagenic call [7]: inactive; negative; mutagenic call [8]: inactive; negative; mutagenic call (Test System: E.COLI, Strain/Indicator: WP2UVRA/PKM101, Metabolic Activation: NONE, Method: PREINCUBATION): inactive; negative; mutagenic call (Test System: E.COLI, Strain/Indicator: WP2UVRA/PKM101, Metabolic Activation: RAT LIVER S-9, PHENOBARBITAL AND BETA-NAPHTHOFLAVONE, Method: PREINCUBATION): inactive; negative

Q: `CCC(C)(C)OC` was tested. Which mutagenic call (Test System: AMES SALMONELLA TYPHIMURIUM, Strain/Indicator: TA98, Metabolic Activation: NONE, Method: STANDARD PLATE) did it give?
A: inactive; negative

Q: What about the mutagenic call [9] of the same compound?
A: inactive; negative

Q: What about the mutagenic call (Test System: AMES SALMONELLA TYPHIMURIUM, Strain/Indicator: TA100, Metabolic Activation: NONE, Method: STANDARD PLATE) of the same compound?
A: inactive; negative

Q: What about the mutagenic call (Test System: AMES SALMONELLA TYPHIMURIUM, Strain/Indicator: TA100, Metabolic Activation: RAT, LIVER, S-9, AROCLOR 1254, Method: STANDARD PLATE) of the same compound?
A: inactive; negative

Q: And the mutagenic call (Test System: AMES SALMONELLA TYPHIMURIUM, Strain/Indicator: TA1535, Metabolic Activation: NONE, Method: STANDARD PLATE)?
A: inactive; negative

Q: What about the mutagenic call (Test System: AMES SALMONELLA TYPHIMURIUM, Strain/Indicator: TA1535, Metabolic Activation: RAT, LIVER, S-9, AROCLOR 1254, Method: STANDARD PLATE) of the same compound?
A: inactive; negative

Q: What about the mutagenic call (Test System: AMES SALMONELLA TYPHIMURIUM, Strain/Indicator: TA1537, Metabolic Activation: NONE, Method: STANDARD PLATE) of the same compound?
A: inactive; negative

Q: And the mutagenic call (Test System: AMES SALMONELLA TYPHIMURIUM, Strain/Indicator: TA1537, Metabolic Activation: RAT, LIVER, S-9, AROCLOR 1254, Method: STANDARD PLATE)?
A: inactive; negative

Q: And the mutagenic call (Test System: AMES SALMONELLA TYPHIMURIUM, Strain/Indicator: TA1538, Metabolic Activation: NONE, Method: STANDARD PLATE)?
A: inactive; negative

Q: What about the mutagenic call (Test System: AMES SALMONELLA TYPHIMURIUM, Strain/Indicator: TA1538, Metabolic Activation: RAT, LIVER, S-9, AROCLOR 1254, Method: STANDARD PLATE) of the same compound?
A: inactive; negative

Q: With `O=C(Cl)C(Cl)(Cl)Cl` as the compound, how does the mutagenic call (Test System: AMES SALMONELLA TYPHIMURIUM, Strain/Indicator: TA100, Metabolic Activation: NONE, Method: BAG VAPORIZATION) read?
A: active; positive

Q: What about the mutagenic call (Test System: AMES SALMONELLA TYPHIMURIUM, Strain/Indicator: TA100, Metabolic Activation: RAT, LIVER, S-9, AROCLOR 1254, Method: BAG VAPORIZATION) of the same compound?
A: active; positive

Q: Which mutagenic call (Test System: AMES SALMONELLA TYPHIMURIUM, Strain/Indicator: TA98, Metabolic Activation: HAMSTER, LIVER, S-9, AROCLOR 1254 (30%), Method: PREINCUBATION) does the source give for `CCC(Cl)[N+](=O)[O-]` (stereo not drawn) here?
A: active; positive

Q: What about the mutagenic call [1] of the same compound?
A: active; positive

Q: What about the mutagenic call (Test System: AMES SALMONELLA TYPHIMURIUM, Strain/Indicator: TA98, Metabolic Activation: RAT, LIVER, S-9, AROCLOR 1254 (30%), Method: PREINCUBATION) of the same compound?
A: active; positive

Q: What about the mutagenic call (Test System: AMES SALMONELLA TYPHIMURIUM, Strain/Indicator: TA100, Metabolic Activation: HAMSTER, LIVER, S-9, AROCLOR 1254 (30%), Method: PREINCUBATION) of the same compound?
A: active; positive

Q: And the mutagenic call [3]?
A: active; positive

Q: What about the mutagenic call (Test System: AMES SALMONELLA TYPHIMURIUM, Strain/Indicator: TA100, Metabolic Activation: RAT, LIVER, S-9, AROCLOR 1254 (30%), Method: PREINCUBATION) of the same compound?
A: active; positive

Q: What does the source list for `O=[N+]([O-])c1cccc2cccc([N+](=O)[O-])c12`?
A: mutagenic call (End Point: IN VITRO CHROMOSOMAL ABERRATIONS, Test System: CHL CELLS, Metabolic Activation: NONE): inactive; negative; mutagenic call (End Point: IN VITRO CHROMOSOMAL ABERRATIONS, Test System: CHL CELLS, Metabolic Activation: RAT, LIVER, S-9, SODIUM PHENOBARBITAL AND 5,6-BENZOFLAVONE): active; positive (structural changes); mutagenic call (Test System: AMES SALMONELLA TYPHIMURIUM, Strain/Indicator: TA98, Metabolic Activation: HAMSTER, LIVER, S-9, AROCLOR 1254, FLAVIN MONONUCLEOTIDE, Method: PREINCUBATION): active; positive; mutagenic call (Test System: AMES SALMONELLA TYPHIMURIUM, Strain/Indicator: TA98, Metabolic Activation: HAMSTER, LIVER, S-9, AROCLOR 1254, Method: PREINCUBATION): active; positive; mutagenic call [1]: active; positive; mutagenic call [2]: active; positive; mutagenic call (Test System: AMES SALMONELLA TYPHIMURIUM, Strain/Indicator: TA98, Metabolic Activation: RAT, LIVER, S-9, AROCLOR 1254, FLAVIN MONONUCLEOTIDE, Method: PREINCUBATION): active; positive; mutagenic call [9]: active; positive; mutagenic call [3]: active; positive; mutagenic call [4]: active; positive; mutagenic call [5]: inactive; negative; mutagenic call [6]: inactive; negative; mutagenic call [7]: active; positive; mutagenic call [8]: active; positive; mutagenic call (Test System: AMES SALMONELLA TYPHIMURIUM, Strain/Indicator: TA1538, Metabolic Activation: NONE, Method: PREINCUBATION): active; positive; mutagenic call (Test System: AMES SALMONELLA TYPHIMURIUM, Strain/Indicator: TA1538, Metabolic Activation: RAT LIVER S-9, PHENOBARBITAL AND BETA-NAPHTHOFLAVONE, Method: PREINCUBATION): active; positive; mutagenic call (Test System: E.COLI, Strain/Indicator: WP2UVRA, Metabolic Activation: NONE, Method: PREINCUBATION): inactive; negative; mutagenic call (Test System: E.COLI, Strain/Indicator: WP2UVRA, Metabolic Activation: RAT LIVER S-9, PHENOBARBITAL AND BETA-NAPHTHOFLAVONE, Method: PREINCUBATION): active; positive

Reference: PubChem BioAssay AID1259407 (Chemical Carcinogenesis Research Information System (CCRIS), 2018)
